Source: PMC7470113, “Design, synthesis and biological evaluation of edaravone derivatives bearing the N-benzyl pyridinium moiety as multifunctional anti-Alzheimer’s agents” (Journal of Enzyme Inhibition and Medicinal Chemistry, 2020)
Read-outs that look alike come from different tables or passages of the source.

How the values were obtained:
eeAChE = target: T1, eeAChE (Electrophorus electricus, UniProt O42275); test: Cholinesterase inhibition assay (modified Ellman's method), eeAChE; assay type: biochemical; conditions: for IC50: eeAChE, Ellman, 25 °C, triplicate, read-out: AChE IC50; for SI AChE (AChE selectivity index = IC50(eqBuChE)/IC50(eeAChE)): ratio BuChE/AChE
T1 construct: purchased Sigma-Aldrich
T1 sequence (O42275 24-633): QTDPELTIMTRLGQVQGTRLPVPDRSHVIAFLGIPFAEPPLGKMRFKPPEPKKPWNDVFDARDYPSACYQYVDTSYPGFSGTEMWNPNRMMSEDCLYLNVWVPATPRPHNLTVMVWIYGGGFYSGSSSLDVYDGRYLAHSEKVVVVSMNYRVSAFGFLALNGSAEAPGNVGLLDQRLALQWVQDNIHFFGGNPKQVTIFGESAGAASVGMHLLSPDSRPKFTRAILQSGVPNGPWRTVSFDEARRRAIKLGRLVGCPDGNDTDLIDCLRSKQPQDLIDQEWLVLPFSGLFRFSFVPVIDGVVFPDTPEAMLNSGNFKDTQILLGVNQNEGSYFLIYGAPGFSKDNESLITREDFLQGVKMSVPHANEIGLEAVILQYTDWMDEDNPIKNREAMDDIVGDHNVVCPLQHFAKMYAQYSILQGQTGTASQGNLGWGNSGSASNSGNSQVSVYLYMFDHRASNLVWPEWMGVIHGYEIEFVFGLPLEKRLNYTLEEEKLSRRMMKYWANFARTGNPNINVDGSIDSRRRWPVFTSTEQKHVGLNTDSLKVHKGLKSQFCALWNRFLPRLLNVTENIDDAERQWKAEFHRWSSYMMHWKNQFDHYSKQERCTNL
Method: (§1) . […] The test compounds and control were dissolved in DMSO and added to the well to yield various concentrations (1000 µM, 100 µM, 10 µM, 1 µM, 0.1 µM and 0.01 µM). The quantity of DMSO per well accumulated to below 0.01%[45]. Each concentration of test compound and control was conducted in triplicate to ensure consistent results. The well-plates were then incubated at 25 °C for 10 min. Thereafter, 30 µL of either the ATCI or BTCI substrate was added to each well. The plate was then placed inside a Rayto 6500 spectrometer and the absorbance was read at 405 nm every 45 s for 5 min. The percentage activity was calculated using the following equation: [(absorbance of blank − absorbance of test compounds)/absorbance of blank × 100)]. All data analysis was conducted on GraphPad Prism version 8.2.1 for Mac OS, GraphPad Software (San Diego, CA, USA)
(§2) The inhibitory activities of the synthesised compounds were evaluated using eeAChE (electric eel) and eqBuChE (equine serum) according to a modified method of Ellman[44]. […].

eqBuChE = target: T2, eqBuChE (Equus caballus, UniProt P81908); test: Cholinesterase inhibition assay (modified Ellman's method), eqBuChE; assay type: biochemical; conditions: 25 °C, triplicate, read-out: BuChE IC50
T2 construct: purchased Sigma-Aldrich; host or cells: equine serum
T2 sequence (P81908 whole entry): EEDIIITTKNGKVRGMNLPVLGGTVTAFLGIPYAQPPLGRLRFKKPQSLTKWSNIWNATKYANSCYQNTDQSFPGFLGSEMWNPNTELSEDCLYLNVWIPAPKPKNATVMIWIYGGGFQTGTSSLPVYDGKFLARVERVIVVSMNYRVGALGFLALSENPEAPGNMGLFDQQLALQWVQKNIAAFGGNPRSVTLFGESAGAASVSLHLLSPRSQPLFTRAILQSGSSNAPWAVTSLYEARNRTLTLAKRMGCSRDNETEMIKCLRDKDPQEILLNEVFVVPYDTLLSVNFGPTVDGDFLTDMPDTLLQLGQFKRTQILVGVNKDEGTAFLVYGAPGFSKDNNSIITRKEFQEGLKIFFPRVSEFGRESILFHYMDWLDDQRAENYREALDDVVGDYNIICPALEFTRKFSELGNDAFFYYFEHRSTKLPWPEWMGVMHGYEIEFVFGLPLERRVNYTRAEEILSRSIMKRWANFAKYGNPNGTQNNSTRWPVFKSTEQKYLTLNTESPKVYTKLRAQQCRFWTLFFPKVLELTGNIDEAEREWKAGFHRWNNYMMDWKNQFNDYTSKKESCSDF
Method: as §1, §2

[1] = DPPH+ free radical scavenging antioxidant assay
Method: Antioxidant activity was studied with the DPPH^+ free radical scavenging assay[46]^,[47]. DPPH^+ and trolox were purchased from Sigma-Aldrich®. The following method was employed, as previously described, to determine the antioxidant activity of the test compounds. Each well of a 96 well plate, contained the following: 180 µL of 0.12 mM DPPH^+ dissolved in methanol and 20 µL of either test compound, control (trolox) or blank (DMSO). The test compounds and control were dissolved in DMSO and added to the well to yield various concentrations (1000 µM, 100 µM, 10 µM, 1 µM and 0.1 µM). […] The well plate was incubated at 25 °C for 30 min within a dark space. […] The quantity of DMSO per well accumulated to below 0.01%[45]. […] The percentage activity was calculated using the following equation: [(absorbance of blank − absorbance of test compounds)/absorbance of blank × 100)]. All data analysis was conducted on GraphPad Prism version 8.2.1 for Mac OS, GraphPad Software (San Diego, California, USA).
The 2,2-diphenyl-1-picrylhydrazyl (DPPH^+) assay was employed to determine the antioxidant ability of the synthesised compounds.

[2] = set-up: method as in PMID 29907205; conditions: read-out: DPPH+ IC50 (antioxidant activity of edaravone); cited from earlier work
[3] = 0.12 mM DPPH+ in methanol, 30 min, 25 °C, 517 nm, read-out: DPPH+ IC50

Compound	IC50 (eeAChE) [µM]	SI AChE (AChE selectivity index = IC50(eqBuChE)/IC50(eeAChE)) (eeAChE)	IC50 (eqBuChE) [µM]	IC50 [1, 3] [µM]	IC50 [2] [µM]	IC50 ([1]; supplement, dose response curves, read-out: Antioxidant activity (DPPH+) dose response curve IC50) [µM]
CC1=NN(c2ccc(C(=O)NCc3cc[n+](Cc4ccccc4Cl)cc3)cc2)C(=O)C1 [Compound 5e, 1-[(2-Chlorophenyl)methyl]-4-({[4–(3-methyl-5-oxo-4H-pyrazol-1-yl)phenyl]foramido}methyl)pyridin-1-ium bromide]	1.9	468	890	13.8		
CC1=NN(c2ccc(C(=O)NCc3cc[n+](Cc4ccc(Br)cc4)cc3)cc2)C(=O)C1 [Compound 5i, 1-[(4-Bromophenyl)methyl]-4-({[4–(3-methyl-5-oxo-4H-pyrazol-1-yl)phenyl]foramido}methyl)pyridin-1-ium bromide]	11.5	>87	> 1000	18.1		
CC1=NN(c2ccc(C(=O)NCc3cc[n+](Cc4cccc(F)c4)cc3)cc2)C(=O)C1 [Compound 5c, 1-[(3-Fluorophenyl)methyl]-4-({[4–(3-methyl-5-oxo-4H-pyrazol-1-yl)phenyl]foramido}methyl)pyridin-1-ium bromide]	4.6	201	926	25		
CC1=NN(c2ccc(C(=O)NCc3cc[n+](Cc4cccc(Cl)c4)cc3)cc2)C(=O)C1 [Compound 5f, 1-[(3-Chlorophenyl)methyl]-4-({[4–(3-methyl-5-oxo-4H-pyrazol-1-yl)phenyl]foramido}methyl)pyridin-1-ium bromide]	3.3	270	891	13.1		
Cc1c(C)c2c(c(C)c1O)CCC(C)(C(=O)O)O2 (centres unmarked) [Trolox, reference compound]				13.1		
CC1=NN(c2ccccc2)C(=O)C1 [Edaravone]					4.7	
CC1=NN(c2ccc(C(=O)NCc3cc[n+](Cc4ccc(F)cc4)cc3)cc2)C(=O)C1 [Compound 5d, 1-[(4-Fluorophenyl)methyl]-4-({[4–(3-methyl-5-oxo-4H-pyrazol-1-yl)phenyl]foramido}methyl)pyridin-1-ium bromide]	3.6	>278	> 1000	11.5		
CC1=NN(c2ccc(C(=O)NCc3cc[n+](Cc4cccc(C)c4)cc3)cc2)C(=O)C1 [Compound 5k]	69.1	>15	> 1000	27.5		
CC1=NN(c2ccc(C(=O)NCc3cc[n+](Cc4ccc(C)cc4)cc3)cc2)C(=O)C1 [Compound 5l]	95.5	>11	> 1000	14.5		
CC1=NN(c2ccc(C(=O)NCc3cc[n+](Cc4ccccc4F)cc3)cc2)C(=O)C1 [Compound 5b, 1-[(2-Fluorophenyl)methyl]-4-({[4–(3-methyl-5-oxo-4H-pyrazol-1-yl)phenyl]foramido}methyl)pyridin-1-ium bromide]	1.2		> 1000	28.8		
CC1=NN(c2ccc(C(=O)NCc3cc[n+](Cc4ccccc4)cc3)cc2)C(=O)C1 [Compound 5a, 1-Benzyl-4-({[4–(3-methyl-5-oxo-4H-pyrazol-1-yl)phenyl]foramido}methyl)pyridin-1-ium bromide]	30	>33	> 1000	22.9		
CC1=NN(c2ccc(C(=O)NCc3cc[n+](Cc4ccccc4C)cc3)cc2)C(=O)C1 [Compound 5j]	19.9	32	630	9.5		
CC1=NN(c2ccc(C(=O)NCc3cc[n+](Cc4ccccc4Br)cc3)cc2)C(=O)C1 [Compound 5g, 1-[(2-Bromophenyl)methyl]-4-({[4–(3-methyl-5-oxo-4H-pyrazol-1-yl)phenyl]foramido}methyl)pyridin-1-ium bromide]	3.5	46	160	19		19
CC1=NN(c2ccc(C(=O)NCc3cc[n+](Cc4cccc(Br)c4)cc3)cc2)C(=O)C1 [Compound 5h, 1-[(3-Bromophenyl)methyl]-4-({[4–(3-methyl-5-oxo-4H-pyrazol-1-yl)phenyl]foramido}methyl)pyridin-1-ium bromide]	> 100		> 1000	13.3		
CC1=NN(c2ccc(C(=O)NCc3ccncc3)cc2)C(=O)C1 [Compound 3, 4–(3-Methyl-5-oxo-4H-pyrazol-1-yl)-N-(pyridine-4-ylmethyl)benzamide]	> 100		> 1000	12.5		
CC1=NN(c2ccc(C(=O)O)cc2)C(=O)C1 [Compound 1, Edaravone-COOH]				45.7		
